system: HCV Replicon IB; assay: HCV replicon assay in Huh-7 cells, genotype 1b (Rluc luciferase readout); type: cell-based, hepatitis C virus; details: HCV1B replicon, Huh-7 cells, 3 days; read-out: EC50_HCV1B_

SMILES | EC50 [nM]
CC(C)(C)c1cc(C2CC2)cc2c(N)cc(C(=O)NCC3CS(=O)(=O)CCN3)nc12 (centres unmarked) [Compound 324] | 3.63
CC(C)(C)c1cc(C2CC2)cc2c(N)cc(C(=O)NCC3CS(=O)(=O)CCN3)nc12 (centres unmarked) [Compound 334] | 1.71
CC(C)(C)c1cc(C2CC2)cc2c(N)cc(-c3nnc(NC[C@@H]4CCCO4)o3)nc12 [Compound 359] | 1.21
Cc1cc(-c2nnc(NCC[C@H](C)O)s2)nc2c(C(C)(C)C)cc(C3CC3)cc12 [Compound 385] | 1.73
Cc1cc(-c2nnc(NCC[C@H](C)O)s2)nc2c(C(C)(C)C)cc(C3CC3)cc12 [Compound 403] | 6.52

same assay, conditions: Hepatitis C virus, Huh-7, 72 h, HCV1B replicon, Huh-7 cells, 3 days; read-out: EC50_HCV1B_

SMILES | EC50 [nM]
CO[C@@H]1CNC(CNc2nnc(-c3cc(C)c4cc(C5CC5)cc(C(F)(F)F)c4n3)s2)C1 (some centres unmarked) [Compound 311] | 1140
Cc1cc(-c2nnc(NCC3CSCCN3)s2)nc2c(C(F)(F)F)cc(C3CC3)cc12 (centres unmarked) [Compound 312] | 2120
Cc1cc(-c2nnc(Nc3cn[nH]c3)s2)nc2c(C(F)(F)F)cc(C3CC3)cc12 [Compound 313] | 10.2
Nc1cc(C(=O)NC[C@@H]2CC(F)(F)CCN2)nc2c(C(F)(F)F)cc(OC(F)F)cc12 [Compound 314] | 26.1
Nc1cc(C(=O)NC[C@H]2CC(F)(F)CCN2)nc2c(C(F)(F)F)cc(OC(F)F)cc12 [Compound 315] | 83.9
CCC(CNC(=O)c1cc(N)c2cc(OC(F)F)cc(C(F)(F)F)c2n1)=NOC [Compound 316] | 61.8
CC(=O)N1CCNC(CNC(=O)c2cc(N)c3cc(OC(F)F)cc(C(F)(F)F)c3n2)C1 (centres unmarked) [Compound 317] | 9790
CS(=O)(=O)N1CCNC(CNC(=O)c2cc(N)c3cc(OC(F)F)cc(C(F)(F)F)c3n2)C1 (centres unmarked) [Compound 318] | 44400
CC(C)(C)c1cc(C2CC2)cc2c(N)cc(C(=O)NCc3ncccn3)nc12 [Compound 319] | 0.81
CC(C)(C)c1cc(C2CC2)cc2c(N)cc(C(=O)NCc3cnccn3)nc12 [Compound 320] | 1.7
CC(C)(C)c1cc(C2CC2)cc2c(N)cc(C(=O)NCc3ccon3)nc12 [Compound 322] | 5.38
CO[C@H]1CN[C@H](CNC(=O)c2cc(N)c3cc(C4CC4)cc(C(C)(C)C)c3n2)C1 [Compound 323] | 7
CCC(O)CNC(=O)c1cc(N)c2cc(C3CC3)cc(C(C)(C)C)c2n1 (centres unmarked) [Compound 326] | 13.8
CO[C@H]1CN[C@@H](CNC(=O)c2cc(N)c3cc(C4CC4)cc(C(C)(C)C)c3n2)C1 [Compound 327] | 16.5
CO[C@@H]1CN[C@H](CNC(=O)c2cc(N)c3cc(C4CC4)cc(C(C)(C)C)c3n2)C1 [Compound 328] | 15.9
CO[C@@H]1CN[C@@H](CNC(=O)c2cc(N)c3cc(C4CC4)cc(C(C)(C)C)c3n2)C1 [Compound 329] | 9.8
CCO[C@H]1CN[C@H](CNC(=O)c2cc(N)c3cc(C4CC4)cc(C(C)(C)C)c3n2)C1 [Compound 330] | 19.8
CCCO[C@H]1CN[C@H](CNC(=O)c2cc(N)c3cc(C4CC4)cc(C(C)(C)C)c3n2)C1 [Compound 331] | 243
CC(C)(C)c1cc(C2CC2)cc2c(N)cc(C(=O)NC[C@@H]3CC4(CN3)SCCS4)nc12 [Compound 333] | 6.32
CC(C)(C)c1cc(C2CC2)cc2c(N)cc(C(=O)NC[C@H]3CS(=O)(=O)CCN3)nc12 [Compound 335] | 3.02
CC(C)(C)c1cc(C2CC2)cc2c(N)cc(C(=O)NC[C@@H]3CSCN3)nc12 [Compound 336] | 4.45
CC(C)(C)c1cc(C2CC2)cc2c(N)cc(C(=O)NCC3COC3)nc12 [Compound 337] | 69.6
Cc1nnc(-c2cc(OC(F)(F)F)cc3c(Cl)cc(C(=O)NCc4ccccn4)nc23)o1 [Compound 338] | 4710
Cc1nnc(-c2cc(OC(F)(F)F)cc3c(N)cc(C(=O)NCc4ccccn4)nc23)[nH]1 [Compound 339] | 1230

SMILES | EC50 [nM]
CCCCNC(=O)[C@@H]1CSC(c2cc(C)c3cc(OC(F)F)cc(C(F)(F)F)c3n2)=N1 [Compound 340] | 3900
CNC(=O)[C@@H]1CSC(c2cc(C)c3cc(OC(F)F)cc(C(F)(F)F)c3n2)=N1 [Compound 341] | 3530
CC(C)(C)c1cc(C2CC2)cc2c(N)cc(-c3nnc(NCC4OCCO4)o3)nc12 [Compound 342] | 2.11
CCCCNc1nnc(-c2cc(N)c3cc(C4CC4)cc(C(C)(C)C)c3n2)o1 [Compound 344] | 11
CC(C)(C)c1cc(C2CC2)cc2c(N)cc(-c3nnc(NCC(F)(F)F)o3)nc12 [Compound 345] | 560
CC(F)(F)CNc1nnc(-c2cc(N)c3cc(C4CC4)cc(C(C)(C)C)c3n2)o1 [Compound 346] | 157
CC(C)(C)c1cc(C2CC2)cc2c(N)cc(-c3nnc(NCc4ccccn4)o3)nc12 [Compound 347] | 7.54
CC(C)(C)c1cc(C2CC2)cc2c(N)cc(-c3nnc(NC4CCCC4)o3)nc12 [Compound 348] | 5.27
CC(C)(C)c1cc(C2CC2)cc2c(Cl)cc(-c3nnc(Nc4ccccc4)o3)nc12 [Compound 349] | 26.9
CC(C)(C)c1cc(C2CC2)cc2c(N)cc(-c3nnc(NC[C@@H]4CCCO4)o3)nc12 [Compound 350] | 1.9
CC(C)(C)c1cc(C2CC2)cc2c(N)cc(-c3nnc(NCCS(N)(=O)=O)o3)nc12 [Compound 351] | 24.1
CC(C)(C)c1cc(C2CC2)cc2c(N)cc(-c3nnc(NCC4CCCCO4)o3)nc12 (centres unmarked) [Compound 354] | 15.3
CC(C)(C)c1cc(C2CC2)cc2c(N)cc(-c3nnc(NCCCCO)o3)nc12 [Compound 355] | 3.24
CC(C)(C)c1cc(C2CC2)cc2c(N)cc(-c3nnc(NCCCC(F)(F)F)o3)nc12 [Compound 356] | 10.6
CC(C)(C)c1cc(C2CC2)cc2c(N)cc(-c3nnc(Nc4cccc(S(N)(=O)=O)c4)o3)nc12 [Compound 357] | 356
CC(C)(C)c1cc(C2CC2)cc2c(NC(=O)CN)cc(-c3nnc(NCC4OCCO4)o3)nc12 [Compound 361] | 7.36
CC(C)(C)c1cc(C2CC2)cc2c(N)cc(-c3nnc(NCCCO)o3)nc12 [Compound 365] | 4.87
CCCNc1nnc(-c2cc(N)c3cc(C4CC4)cc(C(C)(C)C)c3n2)o1 [Compound 366] | 2.01
CC(C)(O)CCNc1nnc(-c2cc(N)c3cc(C4CC4)cc(C(C)(C)C)c3n2)o1 [Compound 367] | 2.15
CC(C)(C)c1cc(C2CC2)cc2c(N)cc(-c3nnc(NCC(F)(F)CO)o3)nc12 [Compound 372] | 1.95
Nc1nnc(-c2cc(N)c3cc(C4CC4)cc(C(F)(F)F)c3n2)s1 [Compound 373] | 65
CC(C)(O)CCNc1nnc(-c2cc(N)c3cc(C4CC4)cc(C(F)(F)F)c3n2)s1 [Compound 374] | 62
Nc1cc(-c2nnc(NCCCO)s2)nc2c(C(F)(F)F)cc(C3CC3)cc12 [Compound 375] | 9.56
CCCCNc1nnc(-c2cc(N)c3cc(C4CC4)cc(C(C)(C)C)c3n2)s1 [Compound 376] | 0.86

SMILES | EC50 [nM]
CCCCNc1nnc(-c2cc(C)c3cc(C4CC4)cc(C(C)(C)C)c3n2)s1 [Compound 377] | 6.23
CCCCNc1nnc(-c2cc(Cl)c3cc(C4CC4)cc(C(C)(C)C)c3n2)s1 [Compound 378] | 48.9
Cc1cc(-c2nnc(N)s2)nc2c(C(C)(C)C)cc(C3CC3)cc12 [Compound 379] | 1100
Cc1cc(-c2nnc(NCCCO)s2)nc2c(C(C)(C)C)cc(C3CC3)cc12 [Compound 380] | 12.7
Cc1cc(-c2nnc(NCC3CC(F)(F)CN3)s2)nc2c(C(C)(C)C)cc(C3CC3)cc12 (centres unmarked) [Compound 381] | 2930
Cc1cc(-c2nnc(Nc3cn[nH]c3)s2)nc2c(C(C)(C)C)cc(C3CC3)cc12 [Compound 382] | 14.2
CC(C)(O)CCNc1nnc(-c2cc(N)c3cc(C4CC4)cc(C(C)(C)C)c3n2)s1 [Compound 383] | 4.85
CC(C)(C)c1cc(C2CC2)cc2c(N)cc(-c3nnc(NCCCO)s3)nc12 [Compound 384] | 3.66
Cc1cc(-c2nnc(NCC[C@@H](C)O)s2)nc2c(C(C)(C)C)cc(C3CC3)cc12 [Compound 386] | 1.14
CCCNc1nnc(-c2cc(C)c3cc(C4CC4)cc(C(F)(F)F)c3n2)o1 [Compound 387] | 3.3
CCCCCNc1nnc(-c2cc(C)c3cc(C4CC4)cc(C(F)(F)F)c3n2)o1 [Compound 388] | 13.2
CCCCCCNc1nnc(-c2cc(C)c3cc(C4CC4)cc(C(F)(F)F)c3n2)o1 [Compound 389] | 145
Cc1cc(-c2nnc(NC3CCCC3)o2)nc2c(C(F)(F)F)cc(C3CC3)cc12 [Compound 390] | 1.75
Cc1cc(-c2nnc(NCCCS(N)(=O)=O)o2)nc2c(C(C)(C)C)cc(C3CC3)cc12 [Compound 393] | 1200
Cc1cc(-c2nnc(NCc3ncc[nH]3)o2)nc2c(C(C)(C)C)cc(C3CC3)cc12 [Compound 394] | 1130
Cc1cc(-c2nnc(NCCS(N)(=O)=O)o2)nc2c(C(C)(C)C)cc(C3CC3)cc12 [Compound 395] | 34.4
Cc1cc(-c2nnc(NC3CNCC3O)o2)nc2c(C(C)(C)C)cc(C3CC3)cc12 (centres unmarked) [Compound 396] | 1110
Cc1cc(-c2nnc(NC[C@H]3CCCO3)o2)nc2c(C(C)(C)C)cc(C3CC3)cc12 [Compound 397] | 3.17
Cc1cc(-c2nnc(NC[C@@H]3CCCO3)o2)nc2c(C(C)(C)C)cc(C3CC3)cc12 [Compound 398] | 3.69
Cc1cc(-c2nnc(NC3CCNC3)o2)nc2c(C(C)(C)C)cc(C3CC3)cc12 (centres unmarked) [Compound 399] | 888
Cc1cc(-c2nnc(Nc3cn[nH]c3)o2)nc2c(C(C)(C)C)cc(C3CC3)cc12 [Compound 400] | 75.5
Cc1cc(-c2nnc(Nc3ccccn3)o2)nc2c(C(C)(C)C)cc(C3CC3)cc12 [Compound 402] | 2.86

same assay, conditions: Hepatitis C virus, Huh-7, 72 h, read-out: EC50_HCV1B_(nM)

SMILES | EC50 [nM]
CC(C)(C)c1cc(C2CC2)cc2c(N)cc(C(=O)NC[C@@H]3CC4(CN3)OCCO4)nc12 [Compound 332] | 3.07

same assay, conditions: Hepatitis C virus, Huh-7, 72 h; read-out: EC50_HCV1B_

SMILES | EC50 [nM]
CC(C)(C)c1cc(C2CC2)cc2c(NC(=O)CN)cc(-c3nnc(NC4CCCC4)o3)nc12 [Compound 360] | 44.1

— patent US20120053148A1, “INHIBITORS OF HEPATITIS C VIRUS” (GILEAD SCIENCES, INC., priority 2010, published 2012)
